Legend:
WEE1 = target: T1, WEE1 (Homo sapiens, UniProt P30291+Q96SW2); experiment: Western-blot assay of substrate protein degradation in hPBMCs, WEE1; format: cell-based; details: 24 hours of compound treatment, compounds tested at 50 nM and 500 nM (concentration of the table not stated)
T1 construct: endogenous in cells; host or cells: hPBMCs (Milecell Biotechnologies)

IKZF1 = target: T2, IKZF1 (Homo sapiens, UniProt Q13422+Q96SW2); experiment: Western-blot assay of substrate protein degradation in hPBMCs, IKZF1; format: cell-based; details: 24 hours of compound treatment, compounds tested at 50 nM and 500 nM (concentration of the table not stated)
T2 construct: endogenous in cells; host or cells: hPBMCs (Milecell Biotechnologies)
T2 sequence (Q13422 whole entry): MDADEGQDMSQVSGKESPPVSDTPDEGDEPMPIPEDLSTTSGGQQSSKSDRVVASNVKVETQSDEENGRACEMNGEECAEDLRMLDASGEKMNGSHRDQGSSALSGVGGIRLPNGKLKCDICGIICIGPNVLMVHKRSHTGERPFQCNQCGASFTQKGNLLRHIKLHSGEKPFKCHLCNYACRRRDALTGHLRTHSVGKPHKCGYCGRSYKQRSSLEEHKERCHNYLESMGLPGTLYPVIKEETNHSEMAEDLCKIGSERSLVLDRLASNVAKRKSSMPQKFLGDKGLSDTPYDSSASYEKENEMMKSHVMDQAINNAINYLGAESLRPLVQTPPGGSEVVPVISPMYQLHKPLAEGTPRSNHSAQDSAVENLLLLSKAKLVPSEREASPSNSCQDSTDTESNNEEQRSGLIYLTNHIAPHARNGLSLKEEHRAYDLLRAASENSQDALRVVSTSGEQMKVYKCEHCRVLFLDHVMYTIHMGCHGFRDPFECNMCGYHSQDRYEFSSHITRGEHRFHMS
T2 sequence (Q96SW2 whole entry): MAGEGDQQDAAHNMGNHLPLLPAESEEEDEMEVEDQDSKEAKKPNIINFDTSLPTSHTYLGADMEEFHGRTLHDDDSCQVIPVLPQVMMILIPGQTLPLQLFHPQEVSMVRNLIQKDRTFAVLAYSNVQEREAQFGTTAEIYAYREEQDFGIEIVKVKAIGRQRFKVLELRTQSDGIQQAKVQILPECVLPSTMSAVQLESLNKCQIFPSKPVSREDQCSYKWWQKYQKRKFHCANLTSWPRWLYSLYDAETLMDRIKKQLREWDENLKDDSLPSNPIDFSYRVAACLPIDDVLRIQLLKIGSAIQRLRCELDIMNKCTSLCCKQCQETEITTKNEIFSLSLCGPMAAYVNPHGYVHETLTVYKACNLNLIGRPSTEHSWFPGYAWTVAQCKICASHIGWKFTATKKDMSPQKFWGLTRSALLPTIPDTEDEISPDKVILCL
T2 sequence (Q16531 whole entry partner): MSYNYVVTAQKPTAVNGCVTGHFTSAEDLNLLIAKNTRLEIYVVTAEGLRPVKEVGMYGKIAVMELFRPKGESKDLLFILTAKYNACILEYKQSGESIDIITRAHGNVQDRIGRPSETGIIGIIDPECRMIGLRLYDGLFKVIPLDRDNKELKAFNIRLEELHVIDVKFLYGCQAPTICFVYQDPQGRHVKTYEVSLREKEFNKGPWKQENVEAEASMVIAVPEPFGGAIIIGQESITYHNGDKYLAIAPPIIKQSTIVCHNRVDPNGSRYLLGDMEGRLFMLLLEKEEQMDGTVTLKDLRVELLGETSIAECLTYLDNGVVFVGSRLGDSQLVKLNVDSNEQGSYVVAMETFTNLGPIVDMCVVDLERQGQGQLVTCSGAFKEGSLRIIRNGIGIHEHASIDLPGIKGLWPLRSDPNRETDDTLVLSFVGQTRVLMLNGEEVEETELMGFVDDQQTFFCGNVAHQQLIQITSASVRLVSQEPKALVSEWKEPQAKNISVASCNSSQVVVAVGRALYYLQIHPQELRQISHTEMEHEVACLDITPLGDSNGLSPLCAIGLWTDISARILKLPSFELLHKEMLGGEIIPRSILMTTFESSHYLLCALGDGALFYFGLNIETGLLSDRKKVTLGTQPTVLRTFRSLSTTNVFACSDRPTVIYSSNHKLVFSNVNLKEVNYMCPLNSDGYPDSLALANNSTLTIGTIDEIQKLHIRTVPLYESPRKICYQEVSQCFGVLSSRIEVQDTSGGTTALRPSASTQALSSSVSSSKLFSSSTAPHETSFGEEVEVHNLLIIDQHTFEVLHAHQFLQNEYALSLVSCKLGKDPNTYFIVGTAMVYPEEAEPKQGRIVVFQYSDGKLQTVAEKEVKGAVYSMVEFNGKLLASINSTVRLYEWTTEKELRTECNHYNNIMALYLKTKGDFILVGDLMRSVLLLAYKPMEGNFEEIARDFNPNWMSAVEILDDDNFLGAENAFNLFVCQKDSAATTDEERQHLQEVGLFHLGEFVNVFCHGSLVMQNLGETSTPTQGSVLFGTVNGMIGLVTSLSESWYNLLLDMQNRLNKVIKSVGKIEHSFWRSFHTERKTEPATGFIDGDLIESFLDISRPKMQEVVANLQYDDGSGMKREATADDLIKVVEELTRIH

IKZF2 = target: T3, IKZF2 (Homo sapiens, UniProt Q96SW2+Q9UKS7); experiment: Western-blot assay of substrate protein degradation in hPBMCs, IKZF2; format: cell-based; details: 24 hours of compound treatment, compounds tested at 50 nM and 500 nM (concentration of the table not stated)
T3 construct: endogenous in cells; host or cells: hPBMCs (Milecell Biotechnologies)
T3 sequence (Q9UKS7 whole entry): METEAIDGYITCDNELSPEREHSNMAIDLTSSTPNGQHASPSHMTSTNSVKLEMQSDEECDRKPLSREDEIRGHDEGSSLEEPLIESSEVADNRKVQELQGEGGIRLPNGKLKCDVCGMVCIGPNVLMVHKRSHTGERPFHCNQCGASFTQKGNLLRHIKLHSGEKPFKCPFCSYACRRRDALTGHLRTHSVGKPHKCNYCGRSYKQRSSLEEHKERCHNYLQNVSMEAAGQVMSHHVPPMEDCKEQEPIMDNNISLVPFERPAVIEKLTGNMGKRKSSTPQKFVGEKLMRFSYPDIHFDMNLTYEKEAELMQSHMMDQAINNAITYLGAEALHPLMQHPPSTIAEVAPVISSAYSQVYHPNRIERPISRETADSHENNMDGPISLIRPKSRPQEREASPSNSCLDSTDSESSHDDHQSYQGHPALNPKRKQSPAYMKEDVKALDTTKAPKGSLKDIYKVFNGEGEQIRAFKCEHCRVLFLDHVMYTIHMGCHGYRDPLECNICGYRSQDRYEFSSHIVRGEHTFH
T3 sequence (Q96SW2 whole entry): as the sequence (Q96SW2 whole entry) above
T3 sequence (Q16531 whole entry partner): as the sequence (Q16531 whole entry partner) above

IKZF3 = target: T4, IKZF3 (Homo sapiens, UniProt Q96SW2+Q9UKT9); experiment: Western-blot assay of substrate protein degradation in hPBMCs, IKZF3; format: cell-based; details: 24 hours of compound treatment, compounds tested at 50 nM and 500 nM (concentration of the table not stated)
T4 construct: endogenous in cells; host or cells: hPBMCs (Milecell Biotechnologies)
T4 sequence (Q9UKT9 whole entry): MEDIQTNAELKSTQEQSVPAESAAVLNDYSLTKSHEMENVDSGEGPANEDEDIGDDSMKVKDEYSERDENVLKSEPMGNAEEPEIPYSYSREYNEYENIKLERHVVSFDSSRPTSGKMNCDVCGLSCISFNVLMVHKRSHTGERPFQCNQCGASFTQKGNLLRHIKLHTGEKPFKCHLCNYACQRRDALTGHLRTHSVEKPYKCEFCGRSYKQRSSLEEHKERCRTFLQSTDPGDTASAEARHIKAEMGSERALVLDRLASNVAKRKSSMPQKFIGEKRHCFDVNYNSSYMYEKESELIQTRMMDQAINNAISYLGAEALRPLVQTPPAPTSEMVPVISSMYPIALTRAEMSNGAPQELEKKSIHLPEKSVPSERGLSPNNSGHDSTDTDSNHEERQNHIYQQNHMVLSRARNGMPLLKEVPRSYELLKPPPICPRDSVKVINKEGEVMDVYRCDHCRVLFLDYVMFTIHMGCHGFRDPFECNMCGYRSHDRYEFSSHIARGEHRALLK
T4 sequence (Q96SW2 whole entry): as the sequence (Q96SW2 whole entry) above
T4 sequence (Q16531 whole entry partner): as the sequence (Q16531 whole entry partner) above

CK1α = target: T5, CK1α (Homo sapiens, UniProt P48729+Q96SW2); experiment: Western-blot assay of substrate protein degradation in hPBMCs, CK1α; format: cell-based; details: 24 hours of compound treatment, compounds tested at 50 nM and 500 nM (concentration of the table not stated)
T5 construct: endogenous in cells; host or cells: hPBMCs (Milecell Biotechnologies)
T5 sequence (P48729 whole entry): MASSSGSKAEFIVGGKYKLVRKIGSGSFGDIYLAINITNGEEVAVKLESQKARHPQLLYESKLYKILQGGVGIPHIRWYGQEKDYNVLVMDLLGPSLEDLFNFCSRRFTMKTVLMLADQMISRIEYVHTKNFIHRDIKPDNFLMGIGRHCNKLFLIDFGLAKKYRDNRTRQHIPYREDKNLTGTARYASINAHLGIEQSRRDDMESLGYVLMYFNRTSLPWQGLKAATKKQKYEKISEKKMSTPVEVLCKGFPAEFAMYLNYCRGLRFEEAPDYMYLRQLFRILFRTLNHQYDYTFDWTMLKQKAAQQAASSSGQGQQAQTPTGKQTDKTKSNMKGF
T5 sequence (Q96SW2 whole entry): as the sequence (Q96SW2 whole entry) above
T5 sequence (Q16531 whole entry partner): as the sequence (Q16531 whole entry partner) above

GSPT1 = target: T6, GSPT1 (Homo sapiens, UniProt P15170+Q96SW2); experiment: Western-blot assay of substrate protein degradation in hPBMCs, GSPT1; format: cell-based; details: 24 hours of compound treatment, compounds tested at 50 nM and 500 nM (concentration of the table not stated)
T6 construct: endogenous in cells; host or cells: hPBMCs (Milecell Biotechnologies)
T6 sequence (P15170 whole entry): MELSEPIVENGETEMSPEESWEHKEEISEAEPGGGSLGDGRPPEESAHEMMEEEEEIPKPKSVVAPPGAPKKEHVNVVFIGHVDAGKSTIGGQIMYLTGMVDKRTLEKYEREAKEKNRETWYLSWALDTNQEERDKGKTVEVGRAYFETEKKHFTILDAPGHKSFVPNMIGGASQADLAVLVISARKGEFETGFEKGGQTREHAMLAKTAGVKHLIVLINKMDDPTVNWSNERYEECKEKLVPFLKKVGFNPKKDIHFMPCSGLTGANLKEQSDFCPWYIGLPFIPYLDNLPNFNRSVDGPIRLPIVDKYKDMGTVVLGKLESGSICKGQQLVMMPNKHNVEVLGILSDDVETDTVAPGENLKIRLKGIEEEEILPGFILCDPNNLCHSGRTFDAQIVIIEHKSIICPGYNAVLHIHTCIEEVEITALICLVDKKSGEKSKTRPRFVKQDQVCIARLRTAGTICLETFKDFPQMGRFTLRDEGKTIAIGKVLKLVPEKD
T6 sequence (Q96SW2 whole entry): as the sequence (Q96SW2 whole entry) above
T6 sequence (Q16531 whole entry partner): as the sequence (Q16531 whole entry partner) above

[1] = target: T7, human Cereblon WT GST-tagged protein (Homo sapiens, UniProt Q96SW2); experiment: CRBN-binding affinity by HTRF (CEREBLON BINDING kit); details: HTRF inhibitory activity, CEREBLON BINDING kit; read-out: HTRF IC50
T7 construct: purchased CISBIO 64BDCRBNPEH
T7 sequence (Q96SW2 whole entry): as the sequence (Q96SW2 whole entry) above

Vcap = experiment: Tumor cell proliferation inhibition (CellTiter-Meiluncell Luminescent Cell Viability Assay), Vcap; details: Homo sapiens, 96 h, read-out: inhibitory activity (IC50, nM) against tumor cells proliferation, Vcap
Protocol: (§1) The tumor cells used herein were cultured in a cell culture medium listed in table 2 at 37°C in an incubator with 5% CO2. Prior to experimentation, all cell lines used were correctly identified by STR profiling, and tested negative for mycoplasma contamination using a mycoplasma detection kit through routine screenings.
(§2) On the following day, the test compounds of the present disclosure were subjected to serial dilution. […] Subsequently, 0.5 µL of the test compound dilution was transferred into the 96-well plate containing the cells, with each well containing 100 µL of cell culture medium. […] Into the 96-well plate, the diluted test compounds and corresponding detection reagents were added, resulting in final test compound concentrations of 500 nM and 10 nM, respectively. The experimental procedure is described below using the diluted 2 µM test compound as an example.
(§3) After the cells were treated with the compounds of the present disclosure for a specified period (the treatment durations were shown in Table 3), the cell viability assay reagent was added to the culture medium according to the kit's instructions to determine cell viability. […] All controls were treated using the same procedure as the compounds of the present disclosure. The growth inhibition curves for the compounds of the present disclosure were plotted using Prism GraphPad software, and the IC50 values were calculated therefrom.

MM.1R = experiment: Tumor cell proliferation inhibition (CellTiter-Meiluncell Luminescent Cell Viability Assay), MM.1R; details: Homo sapiens, 96 h, read-out: inhibitory activity (IC50, nM) against tumor cells proliferation, MM.1R
SW620 = experiment: Tumor cell proliferation inhibition (CellTiter-Meiluncell Luminescent Cell Viability Assay), SW620; details: Homo sapiens, SW-620, 96 h, read-out: inhibitory activity (IC50, nM) against tumor cells proliferation, SW620
Jurkat = experiment: Tumor cell proliferation inhibition (CellTiter-Meiluncell Luminescent Cell Viability Assay), Jurkat; details: Homo sapiens, 96 h, read-out: inhibitory activity (IC50, nM) against tumor cells proliferation, Jurkat
CAL-62 = experiment: Tumor cell proliferation inhibition (CellTiter-Meiluncell Luminescent Cell Viability Assay), CAL-62; details: Homo sapiens, CAL-62, 96 h, read-out: inhibitory activity (IC50, nM) against tumor cells proliferation, CAL-62
[2] = test system: Human acute T lymphocytic leukemia cells (Molt-4); experiment: Tumor cell proliferation inhibition (CellTiter-Meiluncell Luminescent Cell Viability Assay), Molt-4; details: MOLT-4, 96 h, read-out: inhibitory activity (IC50, nM) against tumor cells proliferation, Molt 4
Protocol: as §1, §2, §3

CCRF-CEM = experiment: Tumor cell proliferation inhibition (CellTiter-Meiluncell Luminescent Cell Viability Assay), CCRF-CEM; details: Homo sapiens, 96 h, read-out: inhibitory activity (IC50, nM) against tumor cells proliferation, CCRF-CEM
Protocol: as §1, §2, §3

NCI-H1975 = experiment: Tumor cell proliferation inhibition (CellTiter-Meiluncell Luminescent Cell Viability Assay), NCI-H1975; details: Homo sapiens, NCI-H1975, 96 h, read-out: inhibitory activity (IC50, nM) against tumor cells proliferation, H1975
Protocol: as §1, §2, §3

SMILES: O=C1CCC(N2Cc3cc(CN4CCN(c5ccc(F)cc5F)CC4)ccc3C2=O)C(=O)N1 (stereo not drawn) [GT-04438, 3-(5-((4-(2,4-difluorophenyl)piperazin-1-yl)methyl)-1-oxoisoindolin-2-yl)piperidine-2,6-dione]
- Weel substrate protein remaining % (WEE1): A (0% ≤ substrate protein remaining % ≤ 80%)
- IKZF 1 substrate protein remaining % (IKZF1): A (0% ≤ substrate protein remaining % ≤ 80%)
- IKZF2 substrate protein remaining % (IKZF2): A (0% ≤ substrate protein remaining % ≤ 80%)
- IKZF3 substrate protein remaining % (IKZF3): A (0% ≤ substrate protein remaining % ≤ 80%)
- CK1a substrate protein remaining % (CK1α): A (0% ≤ substrate protein remaining % ≤ 80%)
- GSPT1 substrate protein remaining % (GSPT1): A (0% ≤ substrate protein remaining % ≤ 80%)
- IC50 [1]: 500 to 1000 nM
- IC50 (Vcap): 50 to 100 nM
- IC50 (MM.1R): 10 to 50 nM
- IC50 (SW620): 100 to 500 nM
- IC50 (Jurkat): 10 to 50 nM
- IC50 (CAL-62): 10 to 50 nM
- IC50 [2]: 10 to 50 nM
- IC50 (CCRF-CEM): 10 to 50 nM
- IC50 (NCI-H1975): 500 to 1000 nM

SMILES: O=C1CCC(N2Cc3cc(CN4CCN(c5cccc(F)n5)CC4)ccc3C2=O)C(=O)N1 (stereo not drawn) [GT-04498, 3-(5-((4-(6-fluoropyridin-2-yl)piperazin-1-yl)methyl)-1-oxoisoindolin-2-yl)piperidine-2,6-dione]
- Weel substrate protein remaining % (WEE1): A (0% ≤ substrate protein remaining % ≤ 80%)
- IKZF 1 substrate protein remaining % (IKZF1): A (0% ≤ substrate protein remaining % ≤ 80%)
- IKZF2 substrate protein remaining % (IKZF2): A (0% ≤ substrate protein remaining % ≤ 80%)
- IKZF3 substrate protein remaining % (IKZF3): A (0% ≤ substrate protein remaining % ≤ 80%)
- CK1a substrate protein remaining % (CK1α): A (0% ≤ substrate protein remaining % ≤ 80%)
- GSPT1 substrate protein remaining % (GSPT1): A (0% ≤ substrate protein remaining % ≤ 80%)
- IC50 [1]: 500 to 1000 nM
- IC50 (Vcap): 100 to 500 nM
- IC50 (MM.1R): 50 to 100 nM
- IC50 (SW620): 500 to 1000 nM
- IC50 (Jurkat): 10 to 50 nM
- IC50 (CAL-62): 50 to 100 nM
- IC50 [2]: 10 to 50 nM
- IC50 (CCRF-CEM): 10 to 50 nM

SMILES: Cc1ccsc1C1CCN(Cc2ccc3c(c2)CN(C2CCC(=O)NC2=O)C3=O)CC1 (stereo not drawn) [GT-04502, 3-(5-((4-(3-methylthiophen-2-yl)piperidin-1-yl)methyl)-1-oxoisoindolin-2-yl)piperidine-2,6-dione]
- Weel substrate protein remaining % (WEE1): A (0% ≤ substrate protein remaining % ≤ 80%)
- IKZF 1 substrate protein remaining % (IKZF1): A (0% ≤ substrate protein remaining % ≤ 80%)
- IKZF2 substrate protein remaining % (IKZF2): A (0% ≤ substrate protein remaining % ≤ 80%)
- IKZF3 substrate protein remaining % (IKZF3): A (0% ≤ substrate protein remaining % ≤ 80%)
- CK1a substrate protein remaining % (CK1α): A (0% ≤ substrate protein remaining % ≤ 80%)
- GSPT1 substrate protein remaining % (GSPT1): A (0% ≤ substrate protein remaining % ≤ 80%)
- IC50 [1]: 500 to 1000 nM
- IC50 (Vcap): 50 to 100 nM
- IC50 (MM.1R): 10 to 50 nM
- IC50 (SW620): 100 to 500 nM
- IC50 (Jurkat): 10 to 50 nM
- IC50 (CAL-62): 10 to 50 nM
- IC50 [2]: 10 to 50 nM
- IC50 (CCRF-CEM): 10 to 50 nM

SMILES: Cc1cscc1C1CCN(Cc2ccc3c(c2)CN(C2CCC(=O)NC2=O)C3=O)CC1 (stereo not drawn) [GT-04504, 3-(5-((4-(4-methylthiophen-3-yl)piperidin-1-yl)methyl)-1-oxoisoindolin-2-yl)piperidine-2,6-dione]
- Weel substrate protein remaining % (WEE1): A (0% ≤ substrate protein remaining % ≤ 80%)
- IKZF 1 substrate protein remaining % (IKZF1): A (0% ≤ substrate protein remaining % ≤ 80%)
- IKZF2 substrate protein remaining % (IKZF2): A (0% ≤ substrate protein remaining % ≤ 80%)
- IKZF3 substrate protein remaining % (IKZF3): A (0% ≤ substrate protein remaining % ≤ 80%)
- CK1a substrate protein remaining % (CK1α): B (80%< substrate protein remaining %≤ 100%)
- GSPT1 substrate protein remaining % (GSPT1): A (0% ≤ substrate protein remaining % ≤ 80%)
- IC50 [1]: 500 to 1000 nM
- IC50 (Vcap): 50 to 100 nM
- IC50 (MM.1R): 10 to 50 nM
- IC50 (SW620): 100 to 500 nM
- IC50 (Jurkat): 10 to 50 nM
- IC50 (CAL-62): 10 to 50 nM
- IC50 [2]: 10 to 50 nM
- IC50 (CCRF-CEM): 10 to 50 nM
